Data on 26 compounds can be found in patent publication US11111243B2, “Azaindole compounds as histone methyltransferase inhibitors” (GLOBAL BLOOD THERAPEUTICS, INC., priority 2017, dated 2021).

The structures appear in SMILES notation. pIC50: −log10 of the molar value. Where a name gives a salt, the structure may show the parent alone.

A word on the pIC50: it is the negative decadic logarithm of the IC50, by convention in mol/L. A lower pIC50 goes with a large IC50.

The test deals with T1, G9a (Homo sapiens, UniProt Q96KQ7).
T1 sequence (Q96KQ7 1-1210): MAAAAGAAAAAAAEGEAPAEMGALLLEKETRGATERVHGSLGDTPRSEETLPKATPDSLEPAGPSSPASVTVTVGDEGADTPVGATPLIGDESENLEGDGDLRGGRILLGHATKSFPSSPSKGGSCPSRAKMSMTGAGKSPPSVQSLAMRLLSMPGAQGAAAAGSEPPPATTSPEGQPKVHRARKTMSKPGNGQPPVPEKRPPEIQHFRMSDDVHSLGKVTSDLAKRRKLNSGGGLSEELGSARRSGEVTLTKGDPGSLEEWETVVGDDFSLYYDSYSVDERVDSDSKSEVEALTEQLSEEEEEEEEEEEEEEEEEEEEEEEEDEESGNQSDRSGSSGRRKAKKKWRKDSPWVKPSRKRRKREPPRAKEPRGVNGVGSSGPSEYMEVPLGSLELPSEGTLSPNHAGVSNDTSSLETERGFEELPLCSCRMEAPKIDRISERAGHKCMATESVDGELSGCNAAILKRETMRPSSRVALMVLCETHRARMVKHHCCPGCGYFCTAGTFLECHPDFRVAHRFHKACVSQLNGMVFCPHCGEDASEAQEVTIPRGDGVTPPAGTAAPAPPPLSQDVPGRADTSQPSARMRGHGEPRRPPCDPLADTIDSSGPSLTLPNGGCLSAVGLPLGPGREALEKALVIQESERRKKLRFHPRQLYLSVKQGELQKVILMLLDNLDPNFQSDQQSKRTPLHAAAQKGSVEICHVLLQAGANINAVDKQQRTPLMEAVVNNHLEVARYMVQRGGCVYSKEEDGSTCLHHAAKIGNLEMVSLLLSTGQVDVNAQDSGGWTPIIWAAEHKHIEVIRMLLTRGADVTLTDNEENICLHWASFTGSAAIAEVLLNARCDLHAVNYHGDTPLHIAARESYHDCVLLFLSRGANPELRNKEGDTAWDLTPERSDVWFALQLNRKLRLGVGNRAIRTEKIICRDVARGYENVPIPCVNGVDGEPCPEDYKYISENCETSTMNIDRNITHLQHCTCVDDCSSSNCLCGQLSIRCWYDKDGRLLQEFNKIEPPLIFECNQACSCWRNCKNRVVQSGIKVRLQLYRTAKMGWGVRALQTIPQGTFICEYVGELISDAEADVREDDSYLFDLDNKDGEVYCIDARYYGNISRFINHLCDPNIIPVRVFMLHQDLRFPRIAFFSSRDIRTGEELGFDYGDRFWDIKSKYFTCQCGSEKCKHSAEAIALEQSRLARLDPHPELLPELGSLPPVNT
Kind of test: G9a AlphaLISA enzymatic activity assay. The format is biochemical. The settings on record: 0.15 nM G9a, 10 uM S-adenosyl-methionine, 100 nM biotinylated histone 3 peptide (1-21), 1 h room temperature. From the text: The G9a AlphaLISA assay was used to detect the methyl modifications of a biotinylated histone H3 peptide by the compounds. These modifications are done by the histone methyl transferase activity of the G9a enzyme. The assay consists of reading a chemiluminescent signal at 615 nm; this signal is generated by a laser excitation at 680 nm that transfers a reactive singlet oxygen between the donor beads and acceptor beads. Donor beads are streptavidin conjugated and bind to the biotin on the peptide. Acceptor beads are conjugated with an antibody that recognizes the specific G9a methyl mark on the peptide. If there is a methyl mark on the peptide, the acceptor beads will bind to the peptide. Upon binding, the acceptor beads will be in close proximity (<200 nm) of the donor beads and when the donor beads are excited, the transfer of the oxygen can occur and a strong signal will be generated. If there is no methyl mark, the interaction between beads will not occur and signal will be at background levels.
For the assay, the following buffer was used to set up reactions: 50 mM Tris-HCl pH9, 50 mM NaCl, 0.01% Tween-20 and 1 mM DTT (added fresh prior to starting the reactions). The assay is set up by adding a final concentration of 0.15 nM G9a, 10 uM S-adenosyl-methionine and, 100 nM biotinylated histone 3 peptide (1-21). The reaction is incubated at room temperature for 1 h, and subsequently quenched by the addition of the acceptor beads (anti-H3k9me2 AlphaLISA acceptor beads, PerkinElmer #AL117) at a final concentration of 20 ug/mL. The acceptor beads are incubated for 1 h. After 1 h, the donor beads are added at a final concentration of 20 ug/mL (Alpha Streptavidin donor beads, PerkinElmer #6760002). Donor beads are incubated for 0.5 h. Both donor and acceptor beads are resuspended in AlphaLISA 5× Epigenetics Buffer 1 Kit (PerkinElmer #AL008) prior to addition to the reaction. All manipulations and incubations with the donor and acceptor beads are done in subdued light. Signal is detected in an EnVision plate reader in Alpha mode (See ACS Med Chem Lett. 2014 Jan. 2; 5(2):205-9)
Percent inhibition was calculated for each compound dilution and the concentration that produced 50% inhibition was calculated. This value is presented as the IC50.
In general terms: Bead proximity is the source of the signal in Alpha formats.
For the compound `COc1cc2c(cc1OCCCN1CCCC1)[nH]c1cc(C)ncc12` [Compound 99, 1-[3-({8-methoxy-3-methyl-5H-pyrido[4,3-b]indol-7-yl}oxy)propyl]pyrrolidine hydrochloride], the pIC50 is 7.80. With `CCCc1nccc2[nH]c3cc(OCCCN(C)C)c(OC)cc3c12` [Compound 55, [3-({8-methoxy-1-propyl-5H-pyrido[4,3-b]indol-7-yl}oxy)propyl]dimethylamine hydrochloride] the figure was 7.74; with `CCOCCc1nccc2[nH]c3cc(OCCCN(C)C)c(OC)cc3c12` [Compound 57, (3-{[1-(2-ethoxyethyl)-8-methoxy-5H-pyrido[4,3-b]indol-7-yl]oxy}propyl)dimethylamine hydrochloride], 7.21. With `CCCc1nccc2[nH]c3cc(OCCCN4CCCC4)c(OC)cc3c12` [Compound 21, 1-[3-({8-methoxy-1-propyl-5H-pyrido[4,3-b]indol-7-yl}oxy)-propyl]pyrrolidine] the figure was 8.48; with `COc1cc2c(cc1OCCCN1CCCC1)[nH]c1c(C)cnc(N3CCCC3)c12` [Compound 89, 1-{8-methoxy-4-methyl-7-[3-(pyrrolidin-1-yl)propoxy]-5H-pyrido[4,3-b]indol-1-yl}pyrrolidine hydrochloride], 7.92; with `COc1cc2c(cc1OCCCN1CCCC1)[nH]c1ccnc(OC3CCOCC3)c12` [Compound 73, 1-(3-{[8-methoxy-1-(oxan-4-yloxy)-5H-pyrido[4,3-b]indol-7-yl]oxy}propyl)pyrrolidine trifluoroacetate], 6.02.

`COc1cc2c(cc1OCCCN(C)C)[nH]c1ccnc(SC)c12` [Compound 95, (3-{[8-methoxy-1-(methylsulfanyl)-5H-pyrido[4,3-b]indol-7-yl]oxy}propyl)dimethylamine hydrochloride] had a pIC50 of 6.25. This pIC50 is 0.23 log units higher than that of the compound before. The compound `CCN(CC)CCCOc1cc2[nH]c3ccnc(C4CC4)c3c2cc1OC` [Compound 102, [3-({1-cyclopropyl-8-methoxy-5H-pyrido[4,3-b]indol-7-yl}oxy)propyl]diethylamine hydrochloride] showed a pIC50 of 6.85. With `CCN(C)CCCOc1cc2[nH]c3ccncc3c2cc1OC` [Compound 45, ethyl[3-({8-methoxy-5H-pyrido[4,3-b]indol-7-yl}oxy)propyl]methylamine hydrochloride] the figure was 7.25; with `COc1cc2c(cc1OCCCN1CCCC1)[nH]c1ccnc(C3=CCOCC3)c12` [Compound 64, 1-(3-{[1-(3,6-dihydro-2H-pyran-4-yl)-8-methoxy-5H-pyrido[4,3-b]indol-7-yl]oxy}propyl)pyrrolidine hydrochloride], 7.92; with `COc1cc2c(cc1OCCCN1CCCC1)[nH]c1ccnc(-c3cn[nH]c3)c12` [Compound 81, 4-[8-methoxy-7-[3-(pyrrolidin-1-yl)propoxy]-5H-pyrido[4,3-b]indol-1-yl]-1H-pyrazole hydrochloride], 7.66. Compound `COc1cc2c(cc1OCCCN1CCCC1)[nH]c1ccnc(O)c12` [Compound 97, 8-methoxy-7-(3-(pyrrolidin-1-yl)propoxy)-5H-pyrido[4,3-b]indol-1-ol trifluoroacetate] showed a pIC50 of 7.17.

`C#Cc1nccc2[nH]c3cc(OCCCN(C)C)c(OC)cc3c12` [Compound 59, [3-({1-ethynyl-8-methoxy-5H-pyrido[4,3-b]indol-7-yl}oxy)propyl]dimethylamine hydrochloride] had a pIC50 of 6.80. This pIC50 lies 0.37 log units lower than the previous one. With `COc1cc2c(cc1OCCCN1CCCC1)[nH]c1ccnc(OC3CCNC3)c12` (centres unmarked) [Compound 74, 3-({8-methoxy-7-[3-(pyrrolidin-1-yl)propoxy]-5H-pyrido[4,3-b]indol-1-yl}oxy)pyrrolidine bis(2,2,2-trifluoroacetate)] the figure was 8.17. The compound `COc1cc2c(cc1OCCCN1CCCC1)[nH]c1ccnc(C3CC3)c12` [Compound 12, 1-[3-({1-cyclopropyl-8-methoxy-5H-pyrido[4,3-b]indol-7-yl}oxy)propyl]pyrrolidine] showed a pIC50 of 8.52 to 9.00. For `COc1cc2c(cc1OCCCN1CCCC1)[nH]c1ncncc12` [Compound 22, 1-[3-({6-methoxy-9H-pyrimido-[4,5-b]indol-7-yl}oxy)propyl]-pyrrolidine] the value was 6.24; for `COc1cc2c(cc1OCCCN1CCCC1)[nH]c1ccnc(N3CC[C@H](O)C3)c12` [Compound 11, (3S)-1-{8-methoxy-7-[3-(pyrrolidin-1-yl)propoxy]-5H-pyrido[4,3-b]indol-1-yl}pyrrolidin-3-ol], 8.09; for `COc1cc2c(cc1OCCCN(C)C)[nH]c1ccnc(C#CC3CC3)c12` [Compound 51, (3-{[1-(2-cyclopropylethynyl)-8-methoxy-5H-pyrido[4,3-b]indol-7-yl]oxy}propyl)dimethylamine hydrochloride], 6.33. For `COc1cc2c(cc1OCCCN(C)C)[nH]c1ccnc(C)c12` [Compound 90, [3-({8-methoxy-1-methyl-5H-pyrido[4,3-b]indol-7-yl}oxy)propyl]dimethylamine hydrochloride] the value was 8.15; for `COc1cc2c(cc1OCCCN(C)C)[nH]c1ccnc(C3CCOCC3)c12` [Compound 68, (3-{[8-methoxy-1-(oxan-4-yl)-5H-pyrido[4,3-b]indol-7-yl]oxy}propyl)dimethylamine hydrochloride], 7.59; for `CCN(CC)c1nccc2[nH]c3cc(OCCCN4CCCC4)c(OC)cc3c12` [Compound 85, N,N-diethyl-8-methoxy-7-[3-(pyrrolidin-1-yl)propoxy]-5H-pyrido[4,3-b]indol-1-amine bis formate], 7.77. For `COc1cc2c(cc1OCCN(C)C)[nH]c1ccncc12` [Compound 70, [2-({8-methoxy-5H-pyrido[4,3-b]indol-7-yl}oxy)ethyl]dimethylamine hydrochloride] the value was 6.40; for `COc1cc2c(cc1OCCCN(C)C)[nH]c1ccnc(C3CC3)c12` [Compound 47, [3-({1-cyclopropyl-8-methoxy-5H-pyrido[4,3-b]indol-7-yl}oxy)propyl]dimethylamine hydrochloride], 8.03; for `COc1cc2c(cc1OCCOCCN(C)C)[nH]c1ccnc(C3CC3)c12` [Compound 53, {2-[2-({1-cyclopropyl-8-methoxy-5H-pyrido[4,3-b]indol-7-yl}oxy)ethoxy]ethyl}dimethylamine hydrochloride], 7.21.

`COc1cc2c(cc1OCCCN(C)C)[nH]c1ccnc(C3CCC3)c12` [Compound 69, [3-({1-cyclobutyl-8-methoxy-5H-pyrido[4,3-b]indol-7-yl}oxy)propyl]dimethylamine hydrochloride] gave a pIC50 of 7.52. The compound `COc1cc2c(cc1OCC1CCCNC1)[nH]c1ccncc12` (centres unmarked) [Compound 87, 3-[({8-methoxy-5H-pyrido[4,3-b]indol-7-yl}oxy)methyl]piperidine hydrochloride] showed a pIC50 of 6.62.
